According to patent US9061984B2 (University of Louisville Research Foundation, Inc., priority 2008, dated 2015):
Converted amounts (≈) assume the structure as drawn. Where two headings read alike, the source gives them in different places.

Legend:
[1] = system: M. tuberculosis H37Rv; test: Conventional aerobic (MABA) culture assay, luminescence MIC; assay type: cell-based, Mycobacterium tuberculosis
[2] = system: several cell lines (Panel/Cell Line); test: GI50, TGI and LC50 of compound II-21 for several cell lines (Table 12)

## C(=N/Nc1ncnc2sc3c(c12)CCCC3)/c1ccccn1 [II-21]
[1]; Mycobacterium tuberculosis, 168 h, aerobic, 7 days, H37Rv
  MIC: 44.9 mg/L (≈ 145 µM)
[1]; VERO vs MABA MIC
  Selectivity Index H37Rv: 0.2
[2]; 48 h, Leukemia, SR, 48-h exposure
  GI50: 0.368 µM
[2]; 48 h, Melanoma, M14, 48-h exposure
  GI50: 0.246 µM
[2]; 48 h, Prostate Cancer, PC-3, 48-h exposure
  GI50: 0.431 µM
[2]; 48 h, read-out: LC50 (M), Leukemia, SR, 48-h exposure
  CC50: > 0.0001 M
[2]; 48 h, read-out: LC50 (M), Melanoma, M14, 48-h exposure
  CC50: 3.34e-05 M
[2]; 48 h, read-out: LC50 (M), Prostate Cancer, PC-3, 48-h exposure
  CC50: > 0.0001 M
[2]; Breast Cancer, BT-549, 48-h exposure
  TGI: 28.7 µM
[2]; Breast Cancer, HS 578T, 48-h exposure
  TGI: 23.9 µM
[2]; Breast Cancer, MCF7, 48-h exposure
  TGI: 15.3 µM
[2]; Breast Cancer, MDA-MB-231/ATCC, 48-h exposure
  TGI: 29.7 µM
[2]; Breast Cancer, MDA-MB-468, 48-h exposure
  TGI: 0.505 µM
[2]; Breast Cancer, T-47D, 48-h exposure
  TGI: 28 µM
[2]; CNS Cancer, SF-268, 48-h exposure
  TGI: 15.1 µM
[2]; CNS Cancer, SF-295, 48-h exposure
  TGI: 12.1 µM
[2]; CNS Cancer, SF-539, 48-h exposure
  TGI: 3.84 µM
[2]; CNS Cancer, SNB-19, 48-h exposure
  TGI: 34.1 µM
[2]; CNS Cancer, SNB-75, 48-h exposure
  TGI: 14.7 µM
[2]; CNS Cancer, U251, 48-h exposure
  TGI: 12.1 µM
[2]; Colon Cancer, COLO 205, 48-h exposure
  TGI: 14.7 µM
[2]; Colon Cancer, HCC-2998, 48-h exposure
  TGI: 22.9 µM
[2]; Colon Cancer, HCT-15, 48-h exposure
  TGI: 27 µM
[2]; Colon Cancer, HCT-116, 48-h exposure
  TGI: 14.2 µM
[2]; Colon Cancer, HT29, 48-h exposure
  TGI: 15.1 µM
[2]; Colon Cancer, KM12, 48-h exposure
  TGI: 12.7 µM
[2]; Colon Cancer, SW-620, 48-h exposure
  TGI: 17.9 µM
[2]; Homo sapiens, 786-0, 48 h, Renal Cancer, 786-0, 48-h exposure
  GI50: 0.333 µM
[2]; Homo sapiens, 786-0, 48 h, read-out: LC50 (M), Renal Cancer, 786-0, 48-h exposure
  CC50: 4.44e-05 M
[2]; Homo sapiens, A498, 48 h, Renal Cancer, A498, 48-h exposure
  GI50: 0.428 µM
[2]; Homo sapiens, A498, 48 h, read-out: LC50 (M), Renal Cancer, A498, 48-h exposure
  CC50: 3.72e-05 M
[2]; Homo sapiens, A549, 48 h, Non-Small Cell Lung Cancer, A549/ATCC, 48-h exposure
  GI50: 0.389 µM
[2]; Homo sapiens, A549, 48 h, read-out: LC50 (M), Non-Small Cell Lung Cancer, A549/ATCC, 48-h exposure
  CC50: 7.13e-05 M
[2]; Homo sapiens, ACHN, 48 h, Renal Cancer, 48-h exposure
  GI50: 0.313 µM
[2]; Homo sapiens, ACHN, 48 h, read-out: LC50 (M), Renal Cancer, ACHN, 48-h exposure
  CC50: > 0.0001 M
[2]; Homo sapiens, BT-549, 48 h, Breast Cancer, BT-549, 48-h exposure
  GI50: 0.394 µM
[2]; Homo sapiens, BT-549, 48 h, read-out: LC50 (M), Breast Cancer, BT-549, 48-h exposure
  CC50: > 0.0001 M
[2]; Homo sapiens, CAKI-1, 48 h, Renal Cancer, CAKI-1, 48-h exposure
  GI50: 0.313 µM
[2]; Homo sapiens, CAKI-1, 48 h, read-out: LC50 (M), Renal Cancer, CAKI-1, 48-h exposure
  CC50: > 0.0001 M
[2]; Homo sapiens, CCRF-CEM, 48 h, Leukemia, 48-h exposure
  GI50: 0.242 µM
[2]; Homo sapiens, CCRF-CEM, 48 h, read-out: LC50 (M), Leukemia, CCRF-CEM, 48-h exposure
  CC50: > 0.0001 M
[2]; Homo sapiens, COLO 205, 48 h, Colon Cancer, COLO 205, 48-h exposure
  GI50: 0.315 µM
[2]; Homo sapiens, COLO 205, 48 h, read-out: LC50 (M), Colon Cancer, COLO 205, 48-h exposure
  CC50: 5.45e-05 M
[2]; Homo sapiens, DU-145, 48 h, Prostate Cancer, DU-145, 48-h exposure
  GI50: 0.41 µM
[2]; Homo sapiens, DU-145, 48 h, read-out: LC50 (M), Prostate Cancer, DU-145, 48-h exposure
  CC50: 5.16e-05 M
[2]; Homo sapiens, EKVX, 48 h, Non-Small Cell Lung Cancer, 48-h exposure
  GI50: 0.317 µM
[2]; Homo sapiens, EKVX, 48 h, read-out: LC50 (M), Non-Small Cell Lung Cancer, EKVX, 48-h exposure
  CC50: > 0.0001 M
[2]; Homo sapiens, HCC 2998, 48 h, Colon Cancer, HCC-2998, 48-h exposure
  GI50: 10 µM
[2]; Homo sapiens, HCC 2998, 48 h, read-out: LC50 (M), Colon Cancer, HCC-2998, 48-h exposure
  CC50: 5.26e-05 M
[2]; Homo sapiens, HCT-15, 48 h, Colon Cancer, HCT-15, 48-h exposure
  GI50: 0.45 µM
[2]; Homo sapiens, HCT-15, 48 h, read-out: LC50 (M), Colon Cancer, HCT-15, 48-h exposure
  CC50: > 0.0001 M
[2]; Homo sapiens, HCT-116, 48 h, Colon Cancer, HCT-116, 48-h exposure
  GI50: 0.166 µM
[2]; Homo sapiens, HCT-116, 48 h, read-out: LC50 (M), Colon Cancer, HCT-116, 48-h exposure
  CC50: 6.74e-05 M
[2]; Homo sapiens, HL-60, 48 h, Leukemia, HL-60(TB), 48-h exposure
  GI50: 0.12 µM
[2]; Homo sapiens, HL-60, 48 h, read-out: LC50 (M), Leukemia, HL-60(TB), 48-h exposure
  CC50: > 0.0001 M
[2]; Homo sapiens, HOP-62, 48 h, Non-Small Cell Lung Cancer, HOP-62, 48-h exposure
  GI50: 0.395 µM
[2]; Homo sapiens, HOP-62, 48 h, read-out: LC50 (M), Non-Small Cell Lung Cancer, HOP-62, 48-h exposure
  CC50: > 0.0001 M
[2]; Homo sapiens, HOP-92, 48 h, Non-Small Cell Lung Cancer, HOP-92, 48-h exposure
  GI50: 0.417 µM
[2]; Homo sapiens, HOP-92, 48 h, read-out: LC50 (M), Non-Small Cell Lung Cancer, HOP-92, 48-h exposure
  CC50: > 0.0001 M
[2]; Homo sapiens, HT-29, 48 h, Colon Cancer, HT29, 48-h exposure
  GI50: 0.18 µM
[2]; Homo sapiens, HT-29, 48 h, read-out: LC50 (M), Colon Cancer, HT29, 48-h exposure
  CC50: 4.49e-05 M
[2]; Homo sapiens, Hs-578T, 48 h, Breast Cancer, HS 578T, 48-h exposure
  GI50: 0.748 µM
[2]; Homo sapiens, Hs-578T, 48 h, read-out: LC50 (M), Breast Cancer, HS 578T, 48-h exposure
  CC50: > 0.0001 M
[2]; Homo sapiens, IGROV-1, 48 h, Ovarian Cancer, IGROV1, 48-h exposure
  GI50: 0.45 µM
[2]; Homo sapiens, IGROV-1, 48 h, read-out: LC50 (M), Ovarian Cancer, IGROV1, 48-h exposure
  CC50: > 0.0001 M
[2]; Homo sapiens, K562, 48 h, Leukemia, K-562, 48-h exposure
  GI50: 0.284 µM
[2]; Homo sapiens, K562, 48 h, read-out: LC50 (M), Leukemia, K-562, 48-h exposure
  CC50: > 0.0001 M
[2]; Homo sapiens, KM12, 48 h, Colon Cancer, KM12, 48-h exposure
  GI50: 0.515 µM
[2]; Homo sapiens, KM12, 48 h, read-out: LC50 (M), Colon Cancer, KM12, 48-h exposure
  CC50: 3.81e-05 M
[2]; Homo sapiens, LOX IMVI, 48 h, Melanoma, 48-h exposure
  GI50: 0.256 µM
[2]; Homo sapiens, LOX IMVI, 48 h, read-out: LC50 (M), Melanoma, LOX IMVI, 48-h exposure
  CC50: 3.48e-05 M
[2]; Homo sapiens, MCF7, 48 h, Breast Cancer, MCF7, 48-h exposure
  GI50: 0.336 µM
[2]; Homo sapiens, MCF7, 48 h, read-out: LC50 (M), Breast Cancer, MCF7, 48-h exposure
  CC50: 8e-05 M
[2]; Homo sapiens, MDA-MB-231, 48 h, Breast Cancer, MDA-MB-231/ATCC, 48-h exposure
  GI50: 0.603 µM
[2]; Homo sapiens, MDA-MB-231, 48 h, read-out: LC50 (M), Breast Cancer, MDA-MB-231/ATCC, 48-h exposure
  CC50: > 0.0001 M
[2]; Homo sapiens, MDA-MB-435, 48 h, Melanoma, MDA-MB-435, 48-h exposure
  GI50: 0.477 µM
[2]; Homo sapiens, MDA-MB-435, 48 h, read-out: LC50 (M), Melanoma, MDA-MB-435, 48-h exposure
  CC50: > 0.0001 M
[2]; Homo sapiens, MDA-MB-468, 48 h, Breast Cancer, MDA-MB-468, 48-h exposure
  GI50: 0.2 µM
[2]; Homo sapiens, MDA-MB-468, 48 h, read-out: LC50 (M), Breast Cancer, MDA-MB-468, 48-h exposure
  CC50: 4.1e-05 M
[2]; Homo sapiens, MOLT-4, 48 h, Leukemia, MOLT-4, 48-h exposure
  GI50: 0.261 µM
[2]; Homo sapiens, MOLT-4, 48 h, read-out: LC50 (M), Leukemia, MOLT-4, 48-h exposure
  CC50: > 0.0001 M
[2]; Homo sapiens, Malme-3M, 48 h, Melanoma, 48-h exposure
  GI50: 0.275 µM
[2]; Homo sapiens, Malme-3M, 48 h, read-out: LC50 (M), Melanoma, MALME-3M, 48-h exposure
  CC50: 5.14e-05 M
[2]; Homo sapiens, NCI-H23, 48 h, Non-Small Cell Lung Cancer, NCI-H23, 48-h exposure
  GI50: 0.705 µM
[2]; Homo sapiens, NCI-H23, 48 h, read-out: LC50 (M), Non-Small Cell Lung Cancer, NCI-H23, 48-h exposure
  CC50: > 0.0001 M
[2]; Homo sapiens, NCI-H226, 48 h, Non-Small Cell Lung Cancer, NCI-H226, 48-h exposure
  GI50: 0.385 µM
[2]; Homo sapiens, NCI-H226, 48 h, read-out: LC50 (M), Non-Small Cell Lung Cancer, NCI-H226, 48-h exposure
  CC50: > 0.0001 M
[2]; Homo sapiens, NCI-H322M, 48 h
  GI50: 0.216 µM
[2]; Homo sapiens, NCI-H322M, 48 h, read-out: LC50 (M)
  CC50: > 0.0001 M
[2]; Homo sapiens, NCI-H460, 48 h, Non-Small Cell Lung Cancer, NCI-H460, 48-h exposure
  GI50: 0.304 µM
